Test results reported in article PMC8778187, “A New Oxygen Containing Pyclen-Type Ligand as a Manganese(II) Binder for MRI and ^52Mn PET Applications: Equilibrium, Kinetic, Relaxometric, Structural and Radiochemical Studies” (Molecules, 2022).

What was measured:
[1] = Stability and protonation constants and pMn of Mn(II) complexes by pH-potentiometry; type: physicochemical
Description: The stability and protonation constants of the metal complexes formed with H2OPC2A were determined by pH-potentiometric titrations, but, for the Cu(II) complex, UV-Vis spectrophotometric measurements were also carried out to supplement the pH-potentiometric titration data (Figures S21 and S22, Supporting Information).
The validity of the equilibrium model used for the fitting of the pH-potentiometric titration data for the Mn(II) system, was supported by ^1H relaxometric measurements, when 1/T1 and 1/T2 relaxation rates were determined as a function of pH, and their trends were compared to the species distribution curves calculated by using the equilibrium constants determined by pH-potentiometry (Table 3). The equilibrium for all metal ions can be described by considering the formation of only ([M(L)]) and monoprotonated ([M(HL)]) complexes (Table 3). However, for the Mn(II), Cu(II), and Zn(II) ions, the formation of ternary hydroxido species ([M(L)(OH)]) was also considered. A comparison of the pH-relaxation rate profiles normalized to 1 mM with the species distribution curves, confirmed that the equilibrium model applied for the fitting of pH-potentiometric titration data, satisfactorily described the Mn(II) system. […] The formation of the [Mn(3,9-OPC2A)] complex was also confirmed by analytical HPLC at pH 7.0 relying on the different retention times of the ligand and the complex (the difference is more than 2 min (Figures S20 and S23)).
The stability constants of the complexes are summarized and compared to those of the chelates formed with H21,7-DO2A, H21,4-DO2A, H23,6-PC2A, H23,9-PC2A, and H21,7-O2DO2A, in Table 3. H23,9-OPC2A forms considerably weaker complexes with all the metal ions involved in the study, than H23,9-PC2A, H23,6-PC2A, H21,7-DO2A, and H21,4-DO2A chelators. […] A similar trend in the stability constants can be observed, when the stability of the structurally related ligands is compared (H23,9-PC2A vs. H21,7-DO2A and, at a somewhat lesser extent, in the case of H23,6-PC2A vs. H21,4-DO2A ligands). […] Therefore, we have calculated the pMn values (pMn = −log(Mn(II)free) for the Mn complexes, by using the conditions proposed by É. Tóth and coworkers (cMn^2+ = cligand = 1 × 10^−5 M, T = 25 °C, pH = 7.4). As it is seen from the data presented in Table 3, the value characteristic for the [Mn(3,9-OPC2A)] complex is as high (pMn = 8.69) as it is for the [Mn(3,9-PC2A)] chelate (despite its lower stability constant), which is, in fact, the highest known value for a monoaquated macrocyclic Mn(II) complex (pMn = 8.64). This means that more than 99,97% of the total Mn(II) in the system is chelated by the H23,9-OPC2A ligand near pH = 7.4 in equilibrium.
Metal stock solutions were prepared from the highest analytical grade chemicals, and their concentrations were determined by complexometric titration with standardized Na2H2EDTA and eriochrome black T indicator in the presence of ascorbic acid, and potassium hydrogen tartrate for MnCl2, murexide indicator for CaCl2 and CuCl2, eriochrome black T for MgCl2 and xylenol orange in the presence of hexamethylenetetramine for the solution of ZnCl2. The concentration of the ligand stock solution was determined by pH-potentiometric titrations. The protonation constants of the ligand were determined by the pH potentiometric titrations with 0.15 M NaOH, using 0.0025 M ligand solutions. The ionic strength was set to 0.15 M by using NaCl. […]

[2] = Serum stability in Seronorm followed by r1p relaxation rates; type: in vitro ADME, human
Description: Serum “stability” of the [Mn(3,9-OPC2A)] chelate: during MRI investigations, the CAs are injected into the vein of the patients and, following their injection, the complexes can meet with different proteins present in the blood serum, which are known to bind the essential metal ions in relatively strong manner. Therefore, the plasma proteins can potentially initiate transmetalation/transchelation reactions, especially in the case of Mn(II) complexes whose thermodynamic stability is lower than the stability of the chelates formed with essential metal ions, such as Zn(II) or Cu(II). What is more, for some Mn(II) complexes, depending upon the stability constants, of course, the Ca(II) ions present at high concentrations in the serum can initiate the dissociation of the complex, as in the case of [Mn(EGTA)]^2^−, [Mn(BAPTA)]^2^−, or [Mn(CaM)], for instance. In nuclear medicine, serum “stability” studies are routinely performed, in order to access the integrity of the chelates in the given competitive media.
The serum stability of the Mn(II) complexes was studied by following the r1p relaxation rates of the complex over time, using 1.0 mM solutions in SeronormTM (Seronorm = commercially available lyophilized human blood serum, Sero, Stasjonsveien, Norway) at pH = 7.43 and 25 °C.

[3] = Mn^2+ complex, T = 25 °C, I = 0.15 M NaCl

Row | Structure (SMILES) | log KMnHL [1, 3] | log KMnL [1, 3] | log KMnLOH [1, 3] | total Mn(II) chelated by the ligand in equilibrium ([1]; near pH = 7.4, pMn conditions) | pMn ([1]; pMn = −log(Mn(II)free), cMn^2+ = cligand = 1 × 10^−5 M, T = 25 °C, pH = 7.4) | time over which the relaxation rate remained constant in Seronorm ([2]; 1.0 mM complex, pH = 7.43, 25 °C, negligible dissociation) | r1p in Seronorm solution ([2]; 1.41 T, 25 °C) [mM⁻¹ s⁻¹]
1 | O=C(O)CN1CCOCCN(CC(=O)O)Cc2cccc(n2)C1 [H23,9-OPC2A, 6-Oxa-3,9,15-triazabicyclo(9.3.1)pentadeca-1(15),11,13-triene-3,9-diacetic acid] | 2.40(2) | 13.03(1) | 11.49(1) | more than 99,97% | 8.69 | – | –
2 | O=C([O-])CN1CCOCCN(CC(=O)[O-])Cc2cccc(n2)C1.[Mn+2] [[Mn(3,9-OPC2A)]] | – | – | – | – | – | at least 80 h | 5.09
